In US20050197350A1, “Novel quinoline, tetrahydroquinazoline, and pyrimidine derivatives and methods of treatment related to the use thereof” (TAISHO PHARMACEUTICAL CO., LTD., priority 2003, published 2005):

Tested on: MCH receptors
Assay: MCH receptor activity class (method not given)
Details: MCH receptor; class by percent of control at 10^-7 M or IC50

Row | SMILES | class
1 | CN(C)c1nc(N[C@H]2CC[C@@H](NC(=S)NCC3CCCO3)CC2)nc2c1CCCC2 (relative stereo) [compound 1958] | 3 (Class 3 The value of percent of control at 10^−7 M was more than 60% or the value of IC50 was more than 200 nM.)
2 | CN(C)c1nc(N[C@H]2CC[C@@H](NC(=S)NC34CC5CC(CC(C5)C3)C4)CC2)nc2c1CCCC2 (relative stereo) [compound 1962] | 3 (Class 3 The value of percent of control at 10^−7 M was more than 60% or the value of IC50 was more than 200 nM.)
3 | CC(NC(=S)N[C@H]1CC[C@@H](Nc2nc3c(c(N(C)C)n2)CCCC3)CC1)c1ccc(F)cc1 (relative stereo) [compound 2014] | 3 (Class 3 The value of percent of control at 10^−7 M was more than 60% or the value of IC50 was more than 200 nM.)
4 | CC(NC(=S)N[C@H]1CC[C@@H](Nc2nc3c(c(N(C)C)n2)CCCC3)CC1)c1ccccc1 (relative stereo) [compound 2024] | 3 (Class 3 The value of percent of control at 10^−7 M was more than 60% or the value of IC50 was more than 200 nM.)
5 | CN(C)c1nc(N[C@H]2CC[C@@H](NC(=S)NC3CC4C=CC3C4)CC2)nc2c1CCCC2 (relative stereo) [compound 2067] | 3 (Class 3 The value of percent of control at 10^−7 M was more than 60% or the value of IC50 was more than 200 nM.)

Same assay, conditions: activity class 1-3: percent of control at 10^-7 M or IC50

Row | SMILES | class
6 | COC(CN[C@H]1CC[C@@H](Nc2nccc(N(C)C)n2)CC1)c1ccccc1 (relative stereo) [compound 1516] | 3 (Class 3 The value of percent of control at 10^−7 M was more than 60% or the value of IC50 was more than 200 nM.)
7 | CCOC(=O)[C@H](CC(C)C)NC(=O)N[C@H]1CC[C@@H](Nc2nc3c(c(N(C)C)n2)CCCC3)CC1 (relative stereo) [compound 1663] | 3 (Class 3 The value of percent of control at 10^−7 M was more than 60% or the value of IC50 was more than 200 nM.)
8 | COC(=O)[C@H](CCSC)NC(=O)N[C@H]1CC[C@@H](Nc2nc3c(c(N(C)C)n2)CCCC3)CC1 (relative stereo) [compound 1699] | 3 (Class 3 The value of percent of control at 10^−7 M was more than 60% or the value of IC50 was more than 200 nM.)
9 | CC(NC(=O)N[C@H]1CC[C@@H](Nc2nc3c(c(N(C)C)n2)CCCC3)CC1)c1cccc2ccccc12 (relative stereo) [compound 1704] | 1 (Class 1: The value of percent of control at 10^−7 M was less than 40% or the value of IC50 was less than 50 nM.)
10 | COC(=O)[C@H](Cc1ccccc1)NC(=O)N[C@H]1CC[C@@H](Nc2nc3c(c(N(C)C)n2)CCCC3)CC1 (relative stereo) [compound 1705] | 3 (Class 3 The value of percent of control at 10^−7 M was more than 60% or the value of IC50 was more than 200 nM.)
11 | CC(NC(=O)N[C@H]1CC[C@@H](Nc2nc3c(c(N(C)C)n2)CCCC3)CC1)c1ccccc1 (relative stereo) [compound 1706] | 3 (Class 3 The value of percent of control at 10^−7 M was more than 60% or the value of IC50 was more than 200 nM.)

Same assay, conditions: activity class per percent of control at 10^-7 M or IC50

Row | SMILES | class
12 | CN(C)c1nc(N[C@H]2CC[C@@H](NC(=O)C3CCc4ccccc4C3)CC2)nc2c1CCCC2 (relative stereo) [compound 1053] | 3 (Class 3 The value of percent of control at 10^−7 M was more than 60% or the value of IC50 was more than 200 nM.)
13 | CN(C)c1nc(N[C@H]2CC[C@@H](CNC(=O)C(Cc3ccccc3)c3ccccc3)CC2)nc2c1CCCC2 (relative stereo) [compound 1066] | 3 (Class 3 The value of percent of control at 10^−7 M was more than 60% or the value of IC50 was more than 200 nM.)
14 | CN(C)c1nc(N[C@H]2CC[C@@H](CNC(=O)C3CC(=O)c4ccccc43)CC2)nc2c1CCCC2 (relative stereo) [compound 1071] | 3 (Class 3 The value of percent of control at 10^−7 M was more than 60% or the value of IC50 was more than 200 nM.)
15 | CCOc1ccc(C(=O)CC(C(=O)NC[C@H]2CC[C@@H](Nc3nc4c(c(N(C)C)n3)CCCC4)CC2)C2C(=O)N(c3ccccc3)N=C2C)cc1 (relative stereo) [compound 1080] | 3 (Class 3 The value of percent of control at 10^−7 M was more than 60% or the value of IC50 was more than 200 nM.)
16 | CC(CCN[C@H]1CC[C@@H](Nc2cc(N(C)C)c3ccccc3n2)CC1)c1ccccc1 (relative stereo) [compound 1106] | 3 (Class 3 The value of percent of control at 10^−7 M was more than 60% or the value of IC50 was more than 200 nM.)

Same assay, conditions: class by percent of control at 10^-7 M or IC50

Row | SMILES | class
17 | CC(CCN[C@H]1CC[C@@H](Nc2nccc(N(C)C)n2)CC1)c1ccccc1 (relative stereo) [compound 1226] | 3 (Class 3 The value of percent of control at 10^−7 M was more than 60% or the value of IC50 was more than 200 nM.)
18 | CC(CN[C@H]1CC[C@@H](Nc2nccc(N(C)C)n2)CC1)c1ccccc1 (relative stereo) [compound 1231] | 3 (Class 3 The value of percent of control at 10^−7 M was more than 60% or the value of IC50 was more than 200 nM.)
19 | CC(CN[C@H]1CC[C@@H](Nc2nc3c(c(N(C)C)n2)CCCC3)CC1)c1ccccc1 (relative stereo) [compound 1352] | 3 (Class 3 The value of percent of control at 10^−7 M was more than 60% or the value of IC50 was more than 200 nM.)
20 | COC(CN[C@H]1CC[C@@H](Nc2cc(N(C)C)c3ccccc3n2)CC1)c1ccccc1 (relative stereo) [compound 1450] | 3 (Class 3 The value of percent of control at 10^−7 M was more than 60% or the value of IC50 was more than 200 nM.)
21 | CC(NC(=O)N[C@H]1CC[C@@H](Nc2nc3c(c(N(C)C)n2)CCCC3)CC1)c1ccc(Br)cc1 (relative stereo) [compound 1728, N-[1-(4-bromophenyl)ethyl]-N′-(cis-4-{[4-(dimethylamino)-5,6,7,8-tetrahydroquinazolin-2-yl]amino}cyclohexyl)urea] | 2 (Class 2: The value of percent of control at 10^−7 M was from 40% to 60% or the value of IC′50 was from 50 nM to 200 nM.)
22 | CCOC(=O)[C@H](Cc1ccccc1)NC(=O)N[C@H]1CC[C@@H](Nc2nc3c(c(N(C)C)n2)CCCC3)CC1 (relative stereo) [compound 1730] | 3 (Class 3 The value of percent of control at 10^−7 M was more than 60% or the value of IC50 was more than 200 nM.)
23 | CN(C)c1nc(N[C@H]2CC[C@@H](NC(=O)NC34CC5CC(CC(C5)C3)C4)CC2)nc2c1CCCC2 (relative stereo) [compound 1807] | 3 (Class 3 The value of percent of control at 10^−7 M was more than 60% or the value of IC50 was more than 200 nM.)
24 | CCOC(=O)[C@H](CC(C)C)NC(=O)N[C@H]1CC[C@@H](Nc2cc(N(C)C)c3ccccc3n2)CC1 (relative stereo) [compound 2093] | 3 (Class 3 The value of percent of control at 10^−7 M was more than 60% or the value of IC50 was more than 200 nM.)
25 | COC(=O)[C@H](CCSC)NC(=O)N[C@H]1CC[C@@H](Nc2cc(N(C)C)c3ccccc3n2)CC1 (relative stereo) [compound 2129] | 3 (Class 3 The value of percent of control at 10^−7 M was more than 60% or the value of IC50 was more than 200 nM.)
26 | CC(NC(=O)N[C@H]1CC[C@@H](Nc2cc(N(C)C)c3ccccc3n2)CC1)c1cccc2ccccc12 (relative stereo) [compound 2134] | 1 (Class 1: The value of percent of control at 10^−7 M was less than 40% or the value of IC50 was less than 50 nM.)
27 | COC(=O)[C@H](Cc1ccccc1)NC(=O)N[C@H]1CC[C@@H](Nc2cc(N(C)C)c3ccccc3n2)CC1 (relative stereo) [compound 2135] | 2 (Class 2: The value of percent of control at 10^−7 M was from 40% to 60% or the value of IC′50 was from 50 nM to 200 nM.)
28 | CC(NC(=O)N[C@H]1CC[C@@H](Nc2cc(N(C)C)c3ccccc3n2)CC1)c1ccccc1 (relative stereo) [compound 2136] | 3 (Class 3 The value of percent of control at 10^−7 M was more than 60% or the value of IC50 was more than 200 nM.)
29 | CC(NC(=O)N[C@H]1CC[C@@H](Nc2cc(N(C)C)c3ccccc3n2)CC1)c1ccc(Br)cc1 (relative stereo) [compound 2158] | 3 (Class 3 The value of percent of control at 10^−7 M was more than 60% or the value of IC50 was more than 200 nM.)
30 | CCOC(=O)[C@H](Cc1ccccc1)NC(=O)N[C@H]1CC[C@@H](Nc2cc(N(C)C)c3ccccc3n2)CC1 (relative stereo) [compound 2160] | 3 (Class 3 The value of percent of control at 10^−7 M was more than 60% or the value of IC50 was more than 200 nM.)
31 | CCOC(=O)[C@H](CC(C)C)NC(=O)N[C@H]1CC[C@@H](Nc2nccc(N(C)C)n2)CC1 (relative stereo) [compound 2183] | 3 (Class 3 The value of percent of control at 10^−7 M was more than 60% or the value of IC50 was more than 200 nM.)
32 | COC(=O)[C@H](CCSC)NC(=O)N[C@H]1CC[C@@H](Nc2nccc(N(C)C)n2)CC1 (relative stereo) [compound 2219] | 3 (Class 3 The value of percent of control at 10^−7 M was more than 60% or the value of IC50 was more than 200 nM.)
33 | CC(NC(=O)N[C@H]1CC[C@@H](Nc2nccc(N(C)C)n2)CC1)c1cccc2ccccc12 (relative stereo) [compound 2224, N-(cis-4-{[4-(dimethylamino)pyrimidin-2-yl]amino}cyclohexyl)-N′-[1-(1-naphthyl)ethyl]urea] | 1 (Class 1: The value of percent of control at 10^−7 M was less than 40% or the value of IC50 was less than 50 nM.)
34 | COC(=O)[C@H](Cc1ccccc1)NC(=O)N[C@H]1CC[C@@H](Nc2nccc(N(C)C)n2)CC1 (relative stereo) [compound 2225] | 3 (Class 3 The value of percent of control at 10^−7 M was more than 60% or the value of IC50 was more than 200 nM.)
35 | CC(NC(=O)N[C@H]1CC[C@@H](Nc2nccc(N(C)C)n2)CC1)c1ccccc1 (relative stereo) [compound 2226] | 3 (Class 3 The value of percent of control at 10^−7 M was more than 60% or the value of IC50 was more than 200 nM.)
36 | CC(NC(=O)N[C@H]1CC[C@@H](Nc2nccc(N(C)C)n2)CC1)c1ccc(Br)cc1 (relative stereo) [compound 2248] | 3 (Class 3 The value of percent of control at 10^−7 M was more than 60% or the value of IC50 was more than 200 nM.)
